Measurements published in PubChem BioAssay (NCI).
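Compound exposure: 48 hours, 5 concentrations, 96-well plates. TGI is the concentration that stops growth completely.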

Experiments:
Experiment in all cases: growth of human tumour cells (NCI), 48 h
NCI-H460 lung = test system: NCI-H460 lung
SNB-19 CNS = test system: SNB-19 CNS
IGROV1 ovarian = test system: IGROV1 ovarian
NCI-H522 lung = test system: NCI-H522 lung
U251 CNS = test system: U251 CNS
OVCAR-3 ovarian = test system: OVCAR-3 ovarian
UACC-62 melanoma = test system: UACC-62 melanoma
HOP-18 NSCLC = test system: HOP-18 NSCLC
SW-620 colon = test system: SW-620 colon
SK-OV-3 ovarian = test system: SK-OV-3 ovarian
SNB-75 CNS = test system: SNB-75 CNS
HCT-116 colon = test system: HCT-116 colon
TK-10 renal = test system: TK-10 renal
NCI-H23 lung = test system: NCI-H23 lung
OVCAR-8 ovarian = test system: OVCAR-8 ovarian
M14 melanoma = test system: M14 melanoma
UO-31 renal = test system: UO-31 renal
HOP-62 NSCLC = test system: HOP-62 NSCLC
HT29 colon = test system: HT29 colon
RPMI-8226 leukemia = test system: RPMI-8226 leukemia
KM12 colon = test system: KM12 colon
A549 NSCLC = test system: A549 NSCLC
MALME-3M melanoma = test system: MALME-3M melanoma
UACC-257 melanoma = test system: UACC-257 melanoma
SF-539 CNS = test system: SF-539 CNS
HCT-15 colon = test system: HCT-15 colon
SN12C renal = test system: SN12C renal
EKVX NSCLC = test system: EKVX NSCLC
CCRF-CEM leukemia = test system: CCRF-CEM leukemia
SF-295 CNS = test system: SF-295 CNS
DMS 273 small cell lung = test system: DMS 273 small cell lung
XF 498 CNS = test system: XF 498 CNS
M19-MEL melanoma = test system: M19-MEL melanoma
K-562 leukemia = test system: K-562 leukemia
MOLT-4 leukemia = test system: MOLT-4 leukemia
DMS 114 small cell lung = test system: DMS 114 small cell lung
ACHN renal = test system: ACHN renal
RXF 393 renal = test system: RXF 393 renal
HL-60(TB) leukemia = test system: HL-60(TB) leukemia
SK-MEL-5 melanoma = test system: SK-MEL-5 melanoma
KM20L2 colon = test system: KM20L2 colon
COLO 205 colon = test system: COLO 205 colon
786-0 renal = test system: 786-0 renal
LOX IMVI melanoma = test system: LOX IMVI melanoma
SK-MEL-28 melanoma = test system: SK-MEL-28 melanoma
SK-MEL-2 melanoma = test system: SK-MEL-2 melanoma
NCI-H226 lung = test system: NCI-H226 lung
OVCAR-5 ovarian = test system: OVCAR-5 ovarian
SR leukemia = test system: SR leukemia
LXFL 529 NSCLC = test system: LXFL 529 NSCLC
SNB-78 CNS = test system: SNB-78 CNS
SF-268 CNS = test system: SF-268 CNS
HCC-2998 colon = test system: HCC-2998 colon
DLD-1 colon = test system: DLD-1 colon
A498 renal = test system: A498 renal
CAKI-1 renal = test system: CAKI-1 renal
OVCAR-4 ovarian = test system: OVCAR-4 ovarian

`COc1nc2c(OC)cccc2c(OC)c1C=O` was tested, and the TGI (NCI-H460 lung) was over 100 µM, the TGI (SNB-19 CNS) was over 100 µM and the TGI (IGROV1 ovarian) was over 100 µM. The TGI (NCI-H522 lung) was over 100 µM, the TGI (U251 CNS) was over 100 µM and the TGI (OVCAR-3 ovarian) was over 100 µM. The TGI (UACC-62 melanoma) was over 100 µM, the TGI (HOP-18 NSCLC) was over 100 µM and the TGI (SW-620 colon) was over 100 µM. The TGI (SK-OV-3 ovarian) was over 100 µM, the TGI (SNB-75 CNS) was over 100 µM and the TGI (HCT-116 colon) was over 100 µM. For the same compound, the TGI (TK-10 renal) was over 100 µM, the TGI (NCI-H23 lung) was over 100 µM and the TGI (OVCAR-8 ovarian) was over 100 µM. The TGI (M14 melanoma) was over 100 µM, the TGI (UO-31 renal) was over 100 µM and the TGI (HOP-62 NSCLC) was over 100 µM. The TGI (HT29 colon) was over 100 µM, the TGI (RPMI-8226 leukemia) was over 100 µM and the TGI (KM12 colon) was over 100 µM. For the same compound, the TGI (A549 NSCLC) was over 100 µM, the TGI (MALME-3M melanoma) was over 100 µM and the TGI (UACC-257 melanoma) was over 100 µM. It also gave a TGI (SF-539 CNS) of over 100 µM, a TGI (HCT-15 colon) of over 100 µM and a TGI (SN12C renal) of over 100 µM. The TGI (EKVX NSCLC) was over 100 µM, the TGI (CCRF-CEM leukemia) was over 100 µM and the TGI (SF-295 CNS) was over 100 µM. The TGI (DMS 273 small cell lung) was over 100 µM, the TGI (XF 498 CNS) was over 100 µM and the TGI (M19-MEL melanoma) was over 100 µM. For the same compound, the TGI (K-562 leukemia) was over 100 µM, the TGI (MOLT-4 leukemia) was over 100 µM and the TGI (DMS 114 small cell lung) was over 100 µM. It also gave a TGI (ACHN renal) of over 100 µM, a TGI (RXF 393 renal) of over 100 µM and a TGI (HL-60(TB) leukemia) of over 100 µM. The TGI (SK-MEL-5 melanoma) was over 100 µM, the TGI (KM20L2 colon) was over 100 µM and the TGI (COLO 205 colon) was over 100 µM. It also gave a TGI (786-0 renal) of over 100 µM, a TGI (LOX IMVI melanoma) of over 100 µM and a TGI (SK-MEL-28 melanoma) of over 100 µM. The TGI (SK-MEL-2 melanoma) was over 100 µM and the TGI (NCI-H226 lung) was over 100 µM.

Compound `Cc1cc2c(cc1C)NC(=O)C(NC(=O)/C=C/c1ccccc1)C=N2` (configuration not stated) has a TGI (NCI-H460 lung) of over 100 µM, a TGI (SNB-19 CNS) of over 100 µM and a TGI (IGROV1 ovarian) of over 100 µM. It also gave a TGI (NCI-H522 lung) of 66 µM, a TGI (OVCAR-5 ovarian) of over 100 µM and a TGI (U251 CNS) of 70.2 µM. It also gave a TGI (OVCAR-3 ovarian) of 55.2 µM, a TGI (UACC-62 melanoma) of over 100 µM and a TGI (HOP-18 NSCLC) of over 100 µM. For the same compound, the TGI (SW-620 colon) was 19.6 µM, the TGI (SK-OV-3 ovarian) was over 100 µM and the TGI (SNB-75 CNS) was over 100 µM. It also gave a TGI (HCT-116 colon) of 50.8 µM, a TGI (TK-10 renal) of over 100 µM and a TGI (OVCAR-8 ovarian) of over 100 µM. For the same compound, the TGI (M14 melanoma) was over 100 µM, the TGI (SR leukemia) was 58 µM and the TGI (UO-31 renal) was over 100 µM. For the same compound, the TGI (HOP-62 NSCLC) was over 100 µM, the TGI (RPMI-8226 leukemia) was 75.9 µM and the TGI (KM12 colon) was 55.4 µM. The TGI (A549 NSCLC) was over 100 µM, the TGI (MALME-3M melanoma) was over 100 µM and the TGI (LXFL 529 NSCLC) was over 100 µM. For the same compound, the TGI (UACC-257 melanoma) was 82.9 µM, the TGI (SF-539 CNS) was over 100 µM and the TGI (HCT-15 colon) was 40.4 µM. The TGI (SN12C renal) was over 100 µM, the TGI (SNB-78 CNS) was over 100 µM and the TGI (EKVX NSCLC) was over 100 µM. The TGI (CCRF-CEM leukemia) was 26 µM, the TGI (SF-295 CNS) was over 100 µM and the TGI (DMS 273 small cell lung) was over 100 µM. For the same compound, the TGI (XF 498 CNS) was 99.6 µM, the TGI (M19-MEL melanoma) was over 100 µM and the TGI (K-562 leukemia) was 62.2 µM. For the same compound, the TGI (MOLT-4 leukemia) was 57.7 µM, the TGI (DMS 114 small cell lung) was 31.1 µM and the TGI (SF-268 CNS) was over 100 µM. For the same compound, the TGI (ACHN renal) was over 100 µM, the TGI (RXF 393 renal) was 59.7 µM and the TGI (HL-60(TB) leukemia) was 43.5 µM. It also gave a TGI (HCC-2998 colon) of over 100 µM, a TGI (DLD-1 colon) of over 100 µM and a TGI (SK-MEL-5 melanoma) of over 100 µM. It also gave a TGI (A498 renal) of over 100 µM, a TGI (KM20L2 colon) of over 100 µM and a TGI (COLO 205 colon) of 34.6 µM. It also gave a TGI (786-0 renal) of over 100 µM, a TGI (LOX IMVI melanoma) of 55.3 µM and a TGI (SK-MEL-28 melanoma) of over 100 µM. It also gave a TGI (CAKI-1 renal) of over 100 µM, a TGI (SK-MEL-2 melanoma) of 84.4 µM and a TGI (NCI-H226 lung) of over 100 µM. For the same compound, the TGI (OVCAR-4 ovarian) was over 100 µM.
